This assay concerns the target T1, PfMCA-2 (metacaspase-2) (Plasmodium falciparum, UniProt Q8IL84).
T1 construct: gene MCA2; catalytic domain
In words: fluorogenic Z-GRR-AMC cleavage assay with recombinant enzyme, Michaelis-Menten nonlinear regression. Type of assay: biochemical.

Broadly, the Ki is a dissociation constant, usually derived from enzyme kinetics or from competition with a known ligand.

T1 sequence (Q8IL84 1650-2020): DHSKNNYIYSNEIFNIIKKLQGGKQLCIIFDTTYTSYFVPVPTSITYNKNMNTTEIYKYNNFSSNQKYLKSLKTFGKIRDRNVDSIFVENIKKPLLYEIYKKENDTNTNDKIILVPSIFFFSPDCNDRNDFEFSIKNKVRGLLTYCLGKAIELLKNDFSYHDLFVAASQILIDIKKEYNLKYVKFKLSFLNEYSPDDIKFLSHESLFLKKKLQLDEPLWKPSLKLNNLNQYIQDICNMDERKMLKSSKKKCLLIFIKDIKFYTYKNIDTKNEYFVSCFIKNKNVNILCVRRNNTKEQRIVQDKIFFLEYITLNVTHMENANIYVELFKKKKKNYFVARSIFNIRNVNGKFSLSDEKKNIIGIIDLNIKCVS

Regarding `CC(C)c1ccc(CNc2ccc3oc(CC4CCCCC4)nc3c2)cc1` [C-532], the Ki amounted to 2.1 ± 0.12 nM.

For the compound `CCCc1ccc(CNc2ccc3oc(CC4CCCCC4)nc3c2)cc1` [C-533], the Ki amounted to 1.62 ± 0.22 nM.

Values taken from paper PMC8973346, “Dissecting The role of Plasmodium metacaspase-2 in malaria gametogenesis and sporogony” (Emerging Microbes & Infections, 2022).
